The text below walks through data of a melting point compilation (Tetko et al.; mined from patent text by program, amines drawn as free bases though some values may be those of a salt).

What is called melting point is the temperature of the solid-liquid transition.

On to `CC(=O)NC1CCC(NC(=O)C2CC3c4cccc5c4c(cn5C(C)C)CC3N(C)C2)CC1` (configuration not stated), for which the melting point was over 280 °C.

`O=C(Oc1cc2ccccc2cn1)c1cc2ccccc2oc1=O` displayed a melting point of 160 to 163 °C.

`CCOC=Nc1c2oc3ccccc3c2nn1C` came in with a melting point of 120 to 122 °C.

Regarding `O=S(=O)(Oc1ccc2ccccc2c1-c1nnc(Cl)c2ccccc12)C(F)(F)F`, the melting point was 54 to 55 °C.

`CC(=O)OCC1OC(n2cnc3c(NN4CCCCC4)nc(N)nc32)C(OC(C)=O)C1OC(C)=O` (configuration not stated) gave a melting point of 77 to 79 °C. The figure for `O=c1oc(=O)n(-c2ccccc2)c2ncccc12` is 196 to 198 °C; for `CN1C(=O)C(C(=O)NCC2CCC(C(=O)O)CC2)S(=O)(=O)c2ccccc21` (configuration not stated) it is 203 to 204 °C; for `CCCCn1c(=O)c2nc(C(=O)OCC)cn2c2ccccc21` it is 205 to 209 °C. The figure for `CCOC(=O)CC(O)CCCCCNC(=O)OCc1ccccc1` (configuration not stated) is 47 to 50 °C; for `Fc1cccc2c(NCCc3ccc(Oc4cccc(C(F)(F)F)n4)cc3)ccnc12` it is 157 °C.

`CCCc1nc2ccc(OC(F)(F)F)cc2[nH]1` displayed a melting point of 88 to 90 °C. `COC(=O)c1cc(OC)c(N(C)C(=O)OCc2ccccc2)c(OC)c1`: the melting point lay in the range of 130 to 131 °C. The figure for `CCn1cc(C(=O)O)c(=O)c2cc(F)c(N3CCN(c4ncccn4)C(C)C3)c(OC(F)F)c21` (configuration not stated) is 219 to 221 °C; for `Cc1ccc(S(=O)(=O)OCCc2cc3ccccc3o2)cc1` it is 195 to 197 °C. As to `COc1ccc2c(Cc3c(Cl)cncc3Cl)nnc(CO)c2c1`, the melting point was 190 to 195 °C.

On to `O=c1[nH]cnc2cc(Cl)c(Oc3ccc(Cl)cc3)cc12`, for which the melting point lay within 250 to 252 °C. The figure for `CCN(C(=O)C1CC1)c1cccc(-c2ccnc3c(C(=O)c4ccccc4)cnn23)c1` is 153 to 155 °C; for `CC(CC#CC(C)(C)O[Si](C)(C)C(C)(C)C)C1=CCC2C3=CC=C4CC(O[Si](C)(C)C(C)(C)C(C)C)CCC4(C)C3CCC12C` (configuration not stated) it is 62 to 66 °C. `COc1cc2c(cc1OC)CN(c1nc(N)c3cc(OC)c(OC)cc3n1)C2` had a melting point of 264 to 266 °C.

In turn, `CC(C)NCC1COC(=O)C1(c1ccccc1)c1ccccc1` (configuration not stated) yielded a melting point of 78 to 80 °C. The figure for `O=C(O)Cc1cc(OCc2ccc3ccccc3n2)ccc1Nc1c(Cl)cccc1Cl` is 162 °C; for `BrCc1ccc2nc(-c3cccs3)ccc2c1` it is 95 °C; for `CCOC(=O)C(C(=O)OC(C)C)=C1SC=CS1` it is 54 °C. As for `CCOc1ccc(CC(=O)Cc2csc(-c3ccc(OC)c(OC)c3)n2)cc1OCC`, the figure is 141 to 142 °C; as for `CCc1c(-c2ccc(OCc3ccccc3)cc2)c2c(C(=O)N(C)C)c(C(=O)O)c3cccc1n32`, 236 to 238 °C. As for `CCn1cc(CN(C(=O)Nc2c(C)cccc2C)c2ccc(C(C)C)cc2)cn1`, the figure is 108 °C. In turn, `Cc1c(NC(=O)C(CSC(=O)c2cccnc2)Cc2ccccc2)cccc1C(=O)O` (configuration not stated) yielded a melting point of 80 to 86 °C. In turn, `CCOC(=O)COc1ccc(S(=O)(=O)c2ccc(C)nc2Nc2c(C)cc(C)cc2C)cc1` registered a melting point of 116 to 118 °C.

`CN1C(=O)c2ccccc2OC1(C)COc1ccc(CC2SC(=O)NC2=O)cc1` (configuration not stated): the melting point lay in the range of 58 to 60 °C. Turning to `CN1CC[C@@H](c2c(O)cc(O)c3c(=O)cc(-c4ccccc4)oc23)[C@@H]1CO`, the melting point fell in the range of 212 to 215 °C.

`O=S(=O)(Nc1cc(F)c(Cl)cc1I)c1ccccc1` yielded a melting point of 122 to 124 °C. With `COc1ccc(-n2c(-c3cccnc3)nc(SC)c(C#N)c2=O)cc1`, the melting point lay in the range of 230 to 233 °C. The figure for `CC(=O)N1CCC(CC(=O)c2ccc(N(C)C)cc2)CC1` is 136 °C; for `CCc1c(Sc2cc(Cl)cc(Cl)c2)c(C(N)=O)nn1CCO` it is 214 to 216 °C.

For the compound `CCCC1(C(=O)NCc2ccc(N3Cc4ccccc4C3=O)cc2)c2ccccc2-c2ccccc21`, the melting point was 96 to 99 °C. For `Cn1cc(-c2noc(C(N)CN3CCCCC3)n2)c2ccccc21` (configuration not stated), the melting point lay within 146 to 147 °C.

`COC(=O)C=Cc1nn(-c2ccccc2)c2c1CCC2` came in with a melting point of 147 to 148 °C. For the compound `COc1cc(C=CC(=O)OC2CC3CC(OC(=O)C=Cc4cc(OC)c(OC)c(OC)c4)C(C2)N3C)cc(OC)c1OC` (configuration not stated), the melting point lay in the range of 53 to 57 °C. As for `CCN(CC)CCCN1C(=S)c2cccc3cccc1c23`, the figure is 128 °C. Consider `O=C1CCC(NC(=O)C(Cl)(Cl)Cl)c2ccsc21` (configuration not stated), for which the melting point lay in the range of 167 to 171 °C. The figure for `COc1ccc(C(=O)c2c(F)cccc2F)cc1OC` is 100 to 101 °C. The figure for `CN(C(=O)OC(C)(C)C)C1CCN(CC2(C)Cn3cc([N+](=O)[O-])nc3O2)CC1` (configuration not stated) is 199 to 201 °C. The figure for `CCCCn1c(=O)c(NC(=O)Nc2cc(Cc3cc[nH]n3)ccc2C(C)(C)C)c(-c2cccc(OCCCO)c2)c2cccnc21` is 116 to 119 °C. As to `O=CC(=Cc1cccc(OCc2ccccc2)c1)C(C=O)=Cc1cccc(OCc2ccccc2)c1`, the melting point was 126 to 127 °C. The figure for `Fc1ccc(N2CCN(Cc3cn4cc(Br)ccc4n3)CC2)cc1` is 110 to 112 °C; for `Cc1c(-c2ccccc2)cccc1-c1ccc2ccccc2c1` it is 106 to 107 °C; for `c1ccc(N2CCN3C(NN4CCOCC4)=Nc4ccccc4N3CC2)cc1` it is 142 to 144 °C. In turn, `CC(C)C(=O)NCCNC(=O)OC(C)(C)C` had a melting point of 116 to 117 °C. The figure for `C[Si](C)(C)c1ccc(NC(=O)NC(=O)c2c(F)cccc2F)cc1` is 187 to 189 °C; for `Cc1nc(-c2ccc(C(F)(F)F)cc2)sc1CSc1ccc(OCC(=O)O)cc1` it is 190 °C; for `CC(C(=O)Nc1cccc2c1C(=O)c1c(NC(=O)C(C)N(C)C)cccc1C2=O)N(C)C` (configuration not stated) it is 116 to 117 °C. The figure for `Cc1cc(-c2cccc(Cl)c2)nn2c(C)nnc12` is 194 to 196 °C. The figure for `CC(C)Oc1ccc(C(=O)n2nc(Nc3cccc(N4CCCCC4)c3)nc2N)cc1` is 121 to 124 °C; for `COc1ccc2ccc(OC)c3c2c1CCC3CCNC(C)=O` (configuration not stated) it is 125 °C; for `COC(=O)Cc1cc2c(cc1CC1NCCc3cc(OC)c(OC)cc31)OCO2` (configuration not stated) it is 99 to 101 °C.

`CC(C)(C)N1C(=O)c2cnc(-c3ccccc3)nc2N(C(=O)CCl)c2ccccc21` displayed a melting point of 176 to 177 °C.

The compound `Cc1[nH]cnc1CSCCNC1=C([N+](=O)[O-])CN(Cc2ccccc2)CN1` yielded a melting point of 177 to 180 °C. For `O=[N+]([O-])c1cc(CCl)cc([N+](=O)[O-])c1CCl`, the melting point turned out to be 106 °C.

`CCN(C)c1nsc(NC(=O)NC)c1C#N` had a melting point of 175 °C. As for `Cc1cc(Cc2cc(C(C)(C)CC(C)(C)C)cc(C(C)(C)CC(C)(C)C)c2O)c(O)c(-n2nc3ccccc3n2)c1`, the figure is 138 °C; as for `Cc1ccc(S(=O)(=O)OC2CCC3(C)C4CCC5(C)C(=O)CCC5C4CC(O)C3(O)C2)cc1` (configuration not stated), 154 to 156 °C; as for `COc1ccc(NC(=O)NC2C(=O)Nc3ccccc3N(CCC(C)C)C2=O)cc1` (configuration not stated), 150 to 152 °C. The figure for `Cc1ccc(C(=O)C2=C(O)C(=O)N(c3ccc(C(C)C)nn3)C2c2ccc(C(C)C)cc2)cc1` (configuration not stated) is 269 to 270 °C. The figure for `OCC1OC(Sc2ccccc2)C(OCc2ccccc2)C(OCc2ccccc2)C1OCc1ccccc1` (configuration not stated) is 127 to 129 °C. `COC(=O)C(=CNC(C)=O)C(C)=O` displayed a melting point of 60 to 62 °C.

`O=C1CCc2ccc3ncoc3c21` displayed a melting point of 188 to 190 °C. As for `O=C1N(Cc2ccc3nsnc3c2)c2ccccc2C12COc1cc3c(cc12)OCCO3` (configuration not stated), the figure is 189 to 191 °C. As for `COc1ccc(S(=O)(=O)C2(C(=O)NO)CCN(Cc3ccc(-c4ccccc4)cc3)CC2)cc1`, the figure is 168 °C; as for `COCCOCCOc1ccc2sc(C(=O)Nc3ccccc3N)cc2c1`, 167 to 168 °C. `Clc1ccc(N2CCN(CCc3ccccc3)CC2)nn1` yielded a melting point of 140 °C. As to `CCCCCCCCCCCCn1c(=O)c(=O)[nH]c2c3ccccc3ccc21`, the melting point came to 180 °C. As for `COc1ccc(-c2cnc(N3CCC(O)CC3)nc2)cc1`, the figure is 158 to 160 °C. The figure for `NC(=O)c1ccc(F)c2c1CC([N+](=O)[O-])CO2` (configuration not stated) is 184 to 186 °C. Regarding `O=C(Cc1ccsc1)Nc1ccc(Br)cn1`, the melting point amounted to 117 °C. The compound `Cc1cc2ncnn2nc1OCCOCCN1CCN(C(c2ccccc2)c2ccccc2)CC1` yielded a melting point of 71 to 72 °C. As for `COCCc1nc2c(N)nc3ccccc3c2n1CCOCCN(C)C(=O)c1ccccc1`, the figure is 93.5 to 97 °C; as for `Cn1ncnc1COc1nc2c(cc1-c1ccc(F)cc1)nnn2-c1ccccc1F`, 142 to 145 °C; as for `CC(C)c1cn2cccc(C=O)c2n1`, 70 to 72 °C.

In the case of `CCCc1c(CO)ncn1S(=O)(=O)N(C)C`, the melting point lay in the range of 86 to 88 °C. The figure for `O=C(CCCl)N1c2ccccc2CCc2ccccc21` is 107 to 108 °C; for `CCN(c1ccc(C(=O)c2ccccc2)cc1N)C1CCCCC1` it is 106 to 108 °C. On to `CCOC(=O)NN(C)c1ccc(-c2ccc(F)cc2)nn1`, for which the melting point is 160 to 161 °C.

The compound `N[C@@H](CSc1ccccc1[N+](=O)[O-])C(=O)O` had a melting point of 168 to 171 °C.

As to `CNCCC(=O)N1c2ccccc2N2CCc3cccc(c32)C1C` (configuration not stated), the melting point is 124 to 126 °C. The figure for `CC(C)(C)OC(=O)N[C@H](CNc1ccccc1N)C(=O)O` is 158 to 160 °C.

Take `CC(=O)Nc1ccc(S(=O)(=O)Nc2onc(C)c2Br)cc1`: the melting point is 208 to 210 °C.

Compound `Nc1ncc(I)c(N)c1I` registered a melting point of 206 °C.
